Measured values published in patent publication US8952024B2, “Herbicidal pyrimidone derivatives” (E I du Pont de Nemours and Company, priority 2009, dated 2015).

Legend:
Experiment in all cases: Test B pre-/postemergence plant response
Format in all cases: in vivo
[1] = system: johnsongrass (Sorghum halepense)
Outline: (§1)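 Visual injury, 0–100 scale (100 = complete control), rated against controls after 13 to 15 days in greenhouse. Pre-emergence: seeds in loam/sand soil, treated at planting. Post-emergence: 1- to 4-leaf plants (2 to 18 cm) in peat/vermiculite medium. Compounds formulated in non-phytotoxic solvent with surfactant.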

[2] = system: green foxtail (Setaria viridis)
Outline: as §1

[3] = system: soybean (Glycine max)
Outline: as §1

[4] = system: wild oat (Avena fatua)
Outline: as §1

[5] = system: downy bromegrass (Bromus tectorum)
Outline: as §1

[6] = system: corn (Zea mays)
Outline: as §1

[7] = system: Surinam grass (Brachiaria decumbens)
Outline: as §1

[8] = system: large crabgrass (Digitaria sanguinalis)
Outline: as §1

[9] = system: blackgrass (Alopecurus myosuroides)
Outline: as §1

[10] = system: kochia (Kochia scoparia)
Outline: as §1

[11] = system: yellow nutsedge (Cyperus esculentus)
Outline: as §1

[12] = system: pigweed (Amaranthus retroflexus)
Outline: as §1

[13] = system: goosegrass (Eleusine indica)
Outline: as §1

[14] = system: woolly cupgrass (Eriochloa villosa)
Outline: as §1

[15] = system: morningglory (Ipomoea coccinea)
Outline: as §1

[16] = system: velvetleaf (Abutilon theophrasti)
Outline: as §1

[17] = system: lambsquarters (Chenopodium album)
Outline: as §1

[18] = 62 g ai/ha, postemergence, 0 is no effect, 100 is complete control, 13 to 15 days

COCCn1c(-c2ccsc2)ncc(C(=O)C2=C(O)CCCC2=O)c1=O [Compound 97, 5-[(2-hydroxy-6-oxo-1-cyclohexen-1-yl)carbonyl]-3-(2-methoxyethyl)-2-(3-thienyl)-4(3H)-pyrimidinone]
Johnsongrass plant response rating (0 to 100 scale) [1, 18]: 55 | pest or weed control at 31 g/ha ([1]; Sorghum halepense, post-emergence, 31 g ai/ha, postemergence, scale 0 to 100, 0 is no effect, 100 is complete control, read-out: Plant response rating, Johnsongrass): 15% | pest or weed control at 250 g/ha ([1]; Sorghum halepense, post-emergence, Postemergence, 250 g ai/ha, scale 0 to 100 (0 no effect, 100 complete control), read-out: Plant response rating, Johnsongrass): 85% | Foxtail, Green plant response rating (0 to 100 scale) [2, 18]: 85 | pest or weed control at 31 g/ha ([2]; Setaria viridis, post-emergence, 31 g ai/ha, postemergence, scale 0 to 100, 0 is no effect, 100 is complete control, read-out: Plant response rating, Foxtail, Green): 40% | pest or weed control at 250 g/ha ([2]; Setaria viridis, post-emergence, Postemergence, 250 g ai/ha, scale 0 to 100 (0 no effect, 100 complete control), read-out: Plant response rating, Foxtail, Green): 95% | Soybean plant response rating (0 to 100 scale) [3, 18]: 80 | plant injury at 31 g/ha ([3]; Glycine max, post-emergence, 31 g ai/ha, postemergence, scale 0 to 100, 0 is no effect, 100 is complete control, read-out: Plant response rating, Soybean): 70% | plant injury at 250 g/ha ([3]; Glycine max, post-emergence, Postemergence, 250 g ai/ha, scale 0 to 100 (0 no effect, 100 complete control), read-out: Plant response rating, Soybean): 100% | Oat, Wild plant response rating (0 to 100 scale) [4, 18]: 5 | pest or weed control at 31 g/ha ([4]; Avena fatua, post-emergence, 31 g ai/ha, postemergence, scale 0 to 100, 0 is no effect, 100 is complete control, read-out: Plant response rating, Oat, Wild): 0% | pest or weed control at 250 g/ha ([4]; Avena fatua, post-emergence, Postemergence, 250 g ai/ha, scale 0 to 100 (0 no effect, 100 complete control), read-out: Plant response rating, Oat, Wild): 10% | Bromegrass, Downy plant response rating (0 to 100 scale) [5, 18]: 0 | pest or weed control at 31 g/ha ([5]; Bromus tectorum, post-emergence, 31 g ai/ha, postemergence, scale 0 to 100, 0 is no effect, 100 is complete control, read-out: Plant response rating, Bromegrass, Downy): 0% | pest or weed control at 125 g/ha ([5]; Bromus tectorum, post-emergence, Postemergence, 125 g ai/ha, visual rating after 13 to 15 days, scale 0 (no effect) to 100 (complete control)): 5% | pest or weed control at 250 g/ha ([5]; Bromus tectorum, post-emergence, Postemergence, 250 g ai/ha, scale 0 to 100 (0 no effect, 100 complete control), read-out: Plant response rating, Bromegrass, Downy): 10% | Corn plant response rating (0 to 100 scale) [6, 18]: 40 | Corn plant response rating (crop injury, 0 = no effect, 100 = complete kill) at 31 g/ha ([6]; Zea mays, post-emergence, 31 g ai/ha, postemergence, scale 0 to 100, 0 is no effect, 100 is complete control): 20% | Corn plant response rating (crop injury, 0 = no effect, 100 = complete kill) at 125 g/ha ([6]; Zea mays, post-emergence, Postemergence, 125 g ai/ha, visual rating after 13 to 15 days, scale 0 (no effect) to 100 (complete control)): 60% | Corn plant response rating (crop injury, 0 = no effect, 100 = complete kill) at 250 g/ha ([6]; Zea mays, post-emergence, Postemergence, 250 g ai/ha, scale 0 to 100 (0 no effect, 100 complete control)): 75% | Surinam Grass plant response rating (0 to 100 scale) [7, 18]: 75 | pest or weed control at 31 g/ha ([7]; Urochloa decumbens, post-emergence, 31 g ai/ha, postemergence, scale 0 to 100, 0 is no effect, 100 is complete control, read-out: Plant response rating, Surinam Grass): 65% | pest or weed control at 250 g/ha ([7]; Urochloa decumbens, post-emergence, Postemergence, 250 g ai/ha, scale 0 to 100 (0 no effect, 100 complete control), read-out: Plant response rating, Surinam Grass): 85% | Crabgrass, Large plant response rating (0 to 100 scale) [8, 18]: 80 | pest or weed control at 31 g/ha ([8]; Digitaria sanguinalis, post-emergence, 31 g ai/ha, postemergence, scale 0 to 100, 0 is no effect, 100 is complete control, read-out: Plant response rating, Crabgrass, Large): 75% | pest or weed control at 125 g/ha ([8]; Digitaria sanguinalis, post-emergence, Postemergence, 125 g ai/ha, visual rating after 13 to 15 days, scale 0 (no effect) to 100 (complete control)): 85% | pest or weed control at 250 g/ha ([8]; Digitaria sanguinalis, post-emergence, Postemergence, 250 g ai/ha, scale 0 to 100 (0 no effect, 100 complete control), read-out: Plant response rating, Crabgrass, Large): 95% | Blackgrass plant response rating (0 to 100 scale) [9, 18]: 20 | pest or weed control at 31 g/ha ([9]; Alopecurus myosuroides, post-emergence, 360 h, 31 g ai/ha, postemergence, scale 0 to 100, 0 is no effect, 100 is complete control, read-out: Plant response rating, Blackgrass): 5% | pest or weed control at 125 g/ha ([9]; Alopecurus myosuroides, post-emergence, 360 h, Postemergence, 125 g ai/ha, visual rating after 13 to 15 days, scale 0 (no effect) to 100 (complete control)): 30% | pest or weed control at 250 g/ha ([9]; Alopecurus myosuroides, post-emergence, 360 h, Postemergence, 250 g ai/ha, scale 0 to 100 (0 no effect, 100 complete control), read-out: Plant response rating, Blackgrass): 50% | Kochia plant response rating (0 to 100 scale) [10, 18]: 90 | pest or weed control at 31 g/ha ([10]; Bassia scoparia, post-emergence, 31 g ai/ha, postemergence, scale 0 to 100, 0 is no effect, 100 is complete control, read-out: Plant response rating, Kochia): 65% | pest or weed control at 250 g/ha ([10]; Bassia scoparia, post-emergence, Postemergence, 250 g ai/ha, scale 0 to 100 (0 no effect, 100 complete control), read-out: Plant response rating, Kochia): 100% | Nutsedge, Yellow plant response rating (0 to 100 scale) [11, 18]: 75 | pest or weed control at 31 g/ha ([11]; Cyperus, post-emergence, 31 g ai/ha, postemergence, scale 0 to 100, 0 is no effect, 100 is complete control, read-out: Plant response rating, Nutsedge, Yellow): 75% | pest or weed control at 250 g/ha ([11]; Cyperus, post-emergence, Postemergence, 250 g ai/ha, scale 0 to 100 (0 no effect, 100 complete control), read-out: Plant response rating, Nutsedge, Yellow): 80% | Pigweed plant response rating (0 to 100 scale) [12, 18]: 100 | pest or weed control at 31 g/ha ([12]; Amaranthus retroflexus, post-emergence, 31 g ai/ha, postemergence, scale 0 to 100, 0 is no effect, 100 is complete control, read-out: Plant response rating, Pigweed): 95% | pest or weed control at 250 g/ha ([12]; Amaranthus retroflexus, post-emergence, Postemergence, 250 g ai/ha, scale 0 to 100 (0 no effect, 100 complete control), read-out: Plant response rating, Pigweed): 100% | Goosegrass plant response rating (0 to 100 scale) [13, 18]: 70 | pest or weed control at 31 g/ha ([13]; Eleusine indica, post-emergence, 31 g ai/ha, postemergence, scale 0 to 100, 0 is no effect, 100 is complete control, read-out: Plant response rating, Goosegrass): 60% | pest or weed control at 250 g/ha ([13]; Eleusine indica, post-emergence, Postemergence, 250 g ai/ha, scale 0 to 100 (0 no effect, 100 complete control), read-out: Plant response rating, Goosegrass): 98% | Cupgrass, Woolly plant response rating (0 to 100 scale) [14, 18]: 60 | pest or weed control at 31 g/ha ([14]; Eriochloa villosa, post-emergence, 31 g ai/ha, postemergence, scale 0 to 100, 0 is no effect, 100 is complete control, read-out: Plant response rating, Cupgrass, Woolly): 55% | pest or weed control at 125 g/ha ([14]; Eriochloa villosa, post-emergence, Postemergence, 125 g ai/ha, visual rating after 13 to 15 days, scale 0 (no effect) to 100 (complete control)): 70% | pest or weed control at 250 g/ha ([14]; Eriochloa villosa, post-emergence, Postemergence, 250 g ai/ha, scale 0 to 100 (0 no effect, 100 complete control), read-out: Plant response rating, Cupgrass, Woolly): 75% | Morningglory plant response rating (0 to 100 scale) [15, 18]: 100 | pest or weed control at 31 g/ha ([15]; Ipomoea, post-emergence, 31 g ai/ha, postemergence, scale 0 to 100, 0 is no effect, 100 is complete control, read-out: Plant response rating, Morningglory): 100% | pest or weed control at 250 g/ha ([15]; Ipomoea, post-emergence, Postemergence, 250 g ai/ha, scale 0 to 100 (0 no effect, 100 complete control), read-out: Plant response rating, Morningglory): 100% | Velvetleaf plant response rating (0 to 100 scale) [16, 18]: 100 | pest or weed control at 31 g/ha ([16]; Abutilon theophrasti, post-emergence, 360 h, 31 g ai/ha, postemergence, scale 0 to 100, 0 is no effect, 100 is complete control, read-out: Plant response rating, Velvetleaf): 100% | pest or weed control at 250 g/ha ([16]; Abutilon theophrasti, post-emergence, 360 h, Postemergence, 250 g ai/ha, scale 0 to 100 (0 no effect, 100 complete control), read-out: Plant response rating, Velvetleaf): 100% | Lambsquarters plant response rating (0 to 100 scale) [17, 18]: 100 | pest or weed control at 31 g/ha ([17]; Chenopodium album, post-emergence, 31 g ai/ha, postemergence, scale 0 to 100, 0 is no effect, 100 is complete control, read-out: Plant response rating, Lambsquarters): 90% | pest or weed control at 250 g/ha ([17]; Chenopodium album, post-emergence, Postemergence, 250 g ai/ha, scale 0 to 100 (0 no effect, 100 complete control), read-out: Plant response rating, Lambsquarters): 100%
